US20250064756A1, “NANOCRYSTALLINE TIO2 AND ZNO ORGANOSELENIUM SCAFFOLDS POSSESING DISELENIDE (SE-SE) FUNCTIONALITY FOR BIOMEDICAL TECHNOLOGY” (KING FAISAL UNIVERSITY, priority 2023, published 2025)
Where “and” joins values, the source holds several entries; their conditions need not be identical. Identical values can stand only once.

Legend:
Assay in all cases: Antimicrobial activity, agar diffusion assay
Format in all cases: cell-based
[1] = tested on: S. aureus (+ve); conditions: for A %: Cip. = 100
Method: (§1) All reagents and solvents used in these studies were purchased from Sigma and used without purification. Melting points (MP) were measured on the Gallenkamp apparatus in degrees centigrade. The IR spectra (KBr, λmax·cm^−1) were recorded on a Mattson spectrophotometer (5000 FTIR) at King Faisal University. The ^1H & ^13C NMR spectra were measured using Varian Spectrophotometer (400 MHz), employing DMSO-d6 as the solvent and TMS internal standard at Mansoura University. The chemical shifts (δ, ppm) were recorded regarding the solvent residual peaks. GC-MS-QP-100 EX Shimadzu apparatus was used for mass measurements at Cairo University. All biological tests were carried out at the Faculty of Pharmacy, Mansoura University. All cell lines and microorganisms were purchased from the VACSERA Company (ATCC), Cairo, Egypt. DPPH and ABTS probes were obtained from Sigma.
(§2) In General, the diaryl diselenide B manifested promising antimicrobial activity against E. coli (A %=83%), S. aureus (A %=86%), and C. Albicans (A %=88%).

[2] = tested on: C. albicans; conditions: for A %: Col. = 100
Method: as §1, §2

[3] = tested on: E. coli (−ve); conditions: for A %: Cip. = 100
Method: as §1, §2

[4] = tested on: B. subtilis (+ve); conditions: for A %: Cip. = 100
Method: as §1, §2

[5] = tested on: P. aeruginosa (−ve); conditions: for A %: Cip. = 100
Method: as §1, §2

[6] = tested on: A. flavus
Method: as §1, §2

| Compound | IZD (agar diffusion assay diameter) [1] [mm] | A % [1] [%] | IZD (agar diffusion assay diameter) [2] [mm] | A % [2] [%] | IZD (agar diffusion assay diameter) [3] [mm] | A % [3] | IZD (agar diffusion assay diameter) [4] [mm] | A % [4] [%] | IZD (agar diffusion assay diameter) [5] [mm] | A % [5] [%] | IZD (agar diffusion assay diameter) [6] [mm] | A % ([6]; Col. = 100) [%] |
| --- | --- | --- | --- | --- | --- | --- | --- | --- | --- | --- | --- | --- |
| COC(=O)c1cc([Se][Se]c2ccc(N)c(C(=O)OC)c2)ccc1N [Compound B, dimethyl 5,5-diselanediylbis(2-aminobenzoate)] | 18 | 86 | 21 | 88 | 19 | 83% |  |  |  |  |  |  |
| O=C(O)c1cn(C2CC2)c2cc(N3CCNCC3)c(F)cc2c1=O [Cip., reference compound] | 24 | 100 |  |  | 26 | 100% | 23 | 100 | 23 | 100 |  |  |
| Nc1ccc([Se][Se]c2ccc(N)cc2)cc1 [Compound A] | 17 | 71 | 12 | 44 | 14 | 54% and 62% and 65% | 15 | 65 | 11 | 48 | 8 | 32 |
